Where “and” joins values, the source holds several entries; their conditions need not be identical. Equal values may be shown once. Toxic doses and inconclusive results are not listed. How the source made its calls: active means survival T/C of 150% or more; inactive means T/C below 125% in these data.
Test system: CD2F1 mice, L1210 leukemia ip, survival T/C
Assay: NCI In Vivo Anticancer Drug Screen. Data for tumor model L1210 Leukemia (intraperitoneal) in CD2F1 (CDF1) mice
Conditions: higher = longer survival
How it was run: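 In this screen, transplantable tumors were grown in mice given either the compound or its vehicle. Results were expressed as the treated measurement relative to the control measurement.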

[1] = endpoint: mean survival time, dose: 50.0 mg/kg/injection, schedule: Q01DX009 (ip), vehicle: saline
[2] = endpoint: mean survival time, dose: 100.0 mg/kg/injection, schedule: Q01DX009 (ip), vehicle: saline
[3] = endpoint: mean survival time, dose: 100.0 mg/kg/injection, schedule: Q04DX003 (ip), vehicle: saline with Tween-80
[4] = endpoint: mean survival time, dose: 100.0 mg/kg/injection, schedule: Q01DX001 (ip), vehicle: saline with Tween-80
[5] = endpoint: mean survival time, dose: 200.0 mg/kg/injection, schedule: Q01DX001 (ip), vehicle: saline with Tween-80
[6] = endpoint: mean survival time, dose: 400.0 mg/kg/injection, schedule: Q01DX001 (ip), vehicle: saline with Tween-80

Measured: T/C

O=C1C=C2C(=CCOC2O)O1 (configuration not stated)
inactive: endpoint: mean survival time, dose: 0.25 mg/kg/injection, schedule: Q01DX009 (ip), vehicle: Klucel (hydroxypropylcellulose) (HPC) 108 % of control | endpoint: mean survival time, dose: 0.5 mg/kg/injection, schedule: Q01DX009 (ip), vehicle: Klucel (hydroxypropylcellulose) (HPC) 89 % of control and 106 % of control | endpoint: mean survival time, dose: 0.75 mg/kg/injection, schedule: Q01DX009 (ip), vehicle: Klucel (hydroxypropylcellulose) (HPC) 103 % of control | endpoint: mean survival time, dose: 1.0 mg/kg/injection, schedule: Q01DX009 (ip), vehicle: Klucel (hydroxypropylcellulose) (HPC) 101 % of control and 104 % of control | endpoint: mean survival time, dose: 1.5 mg/kg/injection, schedule: Q01DX009 (ip), vehicle: Klucel (hydroxypropylcellulose) (HPC) 104 % of control | endpoint: mean survival time, dose: 2.0 mg/kg/injection, schedule: Q01DX009 (ip), vehicle: Klucel (hydroxypropylcellulose) (HPC) 102 % of control and 103 % of control | endpoint: mean survival time, dose: 3.0 mg/kg/injection, schedule: Q01DX009 (ip), vehicle: Klucel (hydroxypropylcellulose) (HPC) 104 % of control | endpoint: mean survival time, dose: 4.0 mg/kg/injection, schedule: Q01DX009 (ip), vehicle: Klucel (hydroxypropylcellulose) (HPC) 95 % of control and 106 % of control | endpoint: mean survival time, dose: 6.0 mg/kg/injection, schedule: Q01DX009 (ip), vehicle: Klucel (hydroxypropylcellulose) (HPC) 96 % of control

CC1(C)COCN1COCCOCN1COCC1(C)C
inactive: endpoint: mean survival time, dose: 6.25 mg/kg/injection, schedule: Q01DX009 (ip), vehicle: saline 97 % of control and 98 % of control | endpoint: mean survival time, dose: 12.5 mg/kg/injection, schedule: Q01DX009 (ip), vehicle: saline 100 % of control and 101 % of control | endpoint: mean survival time, dose: 25.0 mg/kg/injection, schedule: Q01DX009 (ip), vehicle: saline 105 % of control and 107 % of control | [1] 106 % of control and 107 % of control | [2] 95 % of control and 105 % of control

C=CCOc1ccc(Cl)cc1Cl
inactive: endpoint: mean survival time, dose: 37.5 mg/kg/injection, schedule: Q01DX009 (ip), vehicle: saline with Tween-80 93 % of control | endpoint: mean survival time, dose: 75.0 mg/kg/injection, schedule: Q01DX009 (ip), vehicle: saline with Tween-80 101 % of control | endpoint: mean survival time, dose: 150.0 mg/kg/injection, schedule: Q01DX009 (ip), vehicle: saline with Tween-80 97 % of control

COc1ccc2c(c1)CCC1(C)C2=CC(=O)/C1=C\[O-].COc1ccc2c(c1)CCC1(C)C2=CC(=O)/C1=C\[O-].[Cu+2] (configuration not stated)
inactive: endpoint: mean survival time, dose: 25.0 mg/kg/injection, schedule: Q04DX003 (ip), vehicle: saline with Tween-80 96 % of control | endpoint: mean survival time, dose: 50.0 mg/kg/injection, schedule: Q04DX003 (ip), vehicle: saline with Tween-80 87 % of control | [3] 86 % of control

CC(=O)OC1CCC2(C)C(=CC=C3C2CCC2(C)C3CC3OC4(CCC(C)CO4)C(C)C32)C1 (configuration not stated)
inactive: endpoint: mean survival time, dose: 50.0 mg/kg/injection, schedule: Q01DX009 (ip), vehicle: Klucel (hydroxypropylcellulose) (HPC) 92 % of control | endpoint: mean survival time, dose: 100.0 mg/kg/injection, schedule: Q01DX009 (ip), vehicle: Klucel (hydroxypropylcellulose) (HPC) 97 % of control | endpoint: mean survival time, dose: 200.0 mg/kg/injection, schedule: Q01DX009 (ip), vehicle: Klucel (hydroxypropylcellulose) (HPC) 94 % of control

COC(=O)C(NC(=O)C(CSC(c1ccccc1)(c1ccccc1)c1ccccc1)NC(c1ccccc1)(c1ccccc1)c1ccccc1)C(C)C (configuration not stated)
inactive: [1] 98 % of control | [2] 92 % of control | endpoint: mean survival time, dose: 200.0 mg/kg/injection, schedule: Q01DX009 (ip), vehicle: saline 97 % of control | endpoint: mean survival time, dose: 400.0 mg/kg/injection, schedule: Q01DX009 (ip), vehicle: saline 89 % of control

COC(=O)c1ccc(C)c(NC2=NCCO2)c1
inactive: endpoint: mean survival time, dose: 6.25 mg/kg/injection, schedule: Q01DX009 (ip), vehicle: saline with Tween-80 96 % of control | endpoint: mean survival time, dose: 12.5 mg/kg/injection, schedule: Q01DX009 (ip), vehicle: saline with Tween-80 97 % of control | endpoint: mean survival time, dose: 25.0 mg/kg/injection, schedule: Q01DX009 (ip), vehicle: saline with Tween-80 102 % of control | endpoint: mean survival time, dose: 50.0 mg/kg/injection, schedule: Q01DX009 (ip), vehicle: saline with Tween-80 105 % of control | [4] 97 % of control | [5] 97 % of control | [6] 93 % of control

CCOC(=O)c1nc2c(n(O)c1=N)CCC/C2=N\O
inactive: endpoint: mean survival time, dose: 100.0 mg/kg/injection, schedule: Q04DX003 (ip), vehicle: Klucel (hydroxypropylcellulose) (HPC) 95 % of control | endpoint: mean survival time, dose: 200.0 mg/kg/injection, schedule: Q04DX003 (ip), vehicle: Klucel (hydroxypropylcellulose) (HPC) 102 % of control | endpoint: mean survival time, dose: 400.0 mg/kg/injection, schedule: Q04DX003 (ip), vehicle: Klucel (hydroxypropylcellulose) (HPC) 91 % of control

CCN(C(=O)Nc1ccc(Cl)cc1)c1ccccc1
inactive: endpoint: mean survival time, dose: 100.0 mg/kg/injection, schedule: Q01DX009 (ip), vehicle: saline with Tween-80 97 % of control | endpoint: mean survival time, dose: 200.0 mg/kg/injection, schedule: Q01DX009 (ip), vehicle: saline with Tween-80 100 % of control | endpoint: mean survival time, dose: 400.0 mg/kg/injection, schedule: Q01DX009 (ip), vehicle: saline with Tween-80 96 % of control

Nc1ccccc1CCCC(N)C(=O)O (configuration not stated)
inactive: [4] 97 % of control | [5] 100 % of control | [6] 93 % of control

Cc1ncc(COP(=O)(O)O)c(C=NC(CCCCN)C(=O)O)c1O.O.[Cu] (configuration not stated)
inactive: endpoint: mean survival time, dose: 12.5 mg/kg/injection, schedule: Q01DX001 (ip), vehicle: saline with Tween-80 98 % of control | endpoint: mean survival time, dose: 25.0 mg/kg/injection, schedule: Q01DX001 (ip), vehicle: saline with Tween-80 92 % of control | endpoint: mean survival time, dose: 50.0 mg/kg/injection, schedule: Q01DX001 (ip), vehicle: saline with Tween-80 98 % of control

COc1c(C2OC(CO)C(O)C2O)nn(C)c1C(N)=O (configuration not stated)
inactive: endpoint: median survival time, dose: 48.5 mg/kg/injection, schedule: Q01DX005 (ip), vehicle: saline 100 % of control | endpoint: median survival time, dose: 97.0 mg/kg/injection, schedule: Q01DX005 (ip), vehicle: saline 102 % of control | endpoint: median survival time, dose: 193.9 mg/kg/injection, schedule: Q01DX005 (ip), vehicle: saline 100 % of control

O=C1c2ccccc2C(=O)N1CCc1c[nH]c2ccccc12
inactive: [4] 102 % of control | [5] 104 % of control | [6] 104 % of control

COc1c(Cl)c(=O)oc2ccc(Cl)cc12
inactive: [4] 93 % of control | [5] 90 % of control | [6] 88 % of control

COc1ccccc1N1C(=O)CSC1=S
inactive: [3] 96 % of control | endpoint: mean survival time, dose: 200.0 mg/kg/injection, schedule: Q04DX003 (ip), vehicle: saline with Tween-80 93 % of control | endpoint: mean survival time, dose: 400.0 mg/kg/injection, schedule: Q04DX003 (ip), vehicle: saline with Tween-80 106 % of control

Clc1ccc(-c2nc3ccccc3s2)cc1
inactive: endpoint: mean survival time, dose: 100.0 mg/kg/injection, schedule: Q01DX001 (ip), vehicle: Klucel (hydroxypropylcellulose) (HPC) 100 % of control | endpoint: mean survival time, dose: 200.0 mg/kg/injection, schedule: Q01DX001 (ip), vehicle: Klucel (hydroxypropylcellulose) (HPC) 95 % of control | endpoint: mean survival time, dose: 400.0 mg/kg/injection, schedule: Q01DX001 (ip), vehicle: Klucel (hydroxypropylcellulose) (HPC) 100 % of control

CC1(C)C(=O)C(Br)=Cc2ccccc21
inactive: endpoint: mean survival time, dose: 12.5 mg/kg/injection, schedule: Q01DX009 (ip), vehicle: other 105 % of control | endpoint: mean survival time, dose: 25.0 mg/kg/injection, schedule: Q01DX009 (ip), vehicle: other 100 % of control | endpoint: mean survival time, dose: 50.0 mg/kg/injection, schedule: Q01DX009 (ip), vehicle: other 111 % of control | endpoint: mean survival time, dose: 100.0 mg/kg/injection, schedule: Q01DX009 (ip), vehicle: other 108 % of control | endpoint: mean survival time, dose: 200.0 mg/kg/injection, schedule: Q01DX009 (ip), vehicle: other 105 % of control

O=[N+]([O-])c1cccc2c1ccc1cccnc12
inactive: endpoint: mean survival time, dose: 100.0 mg/kg/injection, schedule: Q04DX002 (ip), vehicle: saline with Tween-80 90 % of control | endpoint: mean survival time, dose: 200.0 mg/kg/injection, schedule: Q04DX002 (ip), vehicle: saline with Tween-80 95 % of control | endpoint: mean survival time, dose: 400.0 mg/kg/injection, schedule: Q04DX002 (ip), vehicle: saline with Tween-80 98 % of control

O=[N+]([O-])c1cc(S(=O)(=O)O)cc(S(=O)(=O)O)c1O
inactive: endpoint: mean survival time, dose: 100.0 mg/kg/injection, schedule: Q04DX002 (ip), vehicle: saline 100 % of control | endpoint: mean survival time, dose: 200.0 mg/kg/injection, schedule: Q04DX002 (ip), vehicle: saline 107 % of control | endpoint: mean survival time, dose: 400.0 mg/kg/injection, schedule: Q04DX002 (ip), vehicle: saline 103 % of control

From PubChem BioAssay AID256 (DTP/NCI, 2004)
